From patent publication US9120805B2, “Substituted pyrrolo[1,2-A]pyrazin-1-ones and pyrazolo[1,5-A]pyrazin-4-ones as inhibitors of tankyrase and poly(ADP-ribose)polymerase activity” (Merck Patent GmbH, priority 2012, dated 2015)

What was measured:
[1] = target: T1, GST-tagged Tnks-2 (873-1166 aa) (Homo sapiens, UniProt Q9H2K2); experiment: TNKS2 activity ELISA (autoparsylation assay); format: biochemical
T1 construct: GST-tagged Tnks-2 (873-1166 aa, prepared in-house); made in house
Experimental: (§1) Description of the TNKS1 and TNKS2 ELISA Assay
(§2) Biochemical Activity Testing of TNKS 1 and 2: Activity ELISA (Autoparsylation Assay)
(§3) For analysis of autoparsylation activity of TNKS 1 and 2 an activity ELISA is performed: In the first step GST tagged TNKS is captured on a Glutathione coated plate. Then the activity assay with biotinylated NAD is performed in the absence/presence of the compounds. During the enzymatic reaction GST tagged TNKS transfers biotinylated ADP-ribose to itself from biotinylated NAD as co-substrate. For the detection streptavidin-HRP conjugate is added that binds to the biotinylated TNKS and is thereby captured to the plates. The amount of biotinylated resp. autoparsylated TNKS is detected with a luminescence substrate for HRP. The level of the luminescence signal correlates directly with the amount of autoparsylated TNKS and therefore with activity of TNKS.
(§4) The activity ELISA is performed in 384 well Glutathione coated microtiter plates (Express capture Glutathione coated plate, Biocat, Heidelberg, Germany). The plates are pre-equilibrated with PBS. Then the plates are incubated with 50 μl 20 ng/well GST-tagged Tnks-1 (1023-1327 aa, prepared in-house), respectively GST-tagged Tnks-2 (873-1166 aa, prepared in-house) in assay buffer (50 mM HEPES, 4 mM Mg-chloride, 0.05% Pluronic F-68, 2 mM DTT, pH 7.7) overnight at 4° C. The plates are washed 3 times with PBS-Tween-20. The wells are blocked by incubation at room temperature for 20 minutes with 50 μl blocking buffer (PBS, 0.05% Tween-20, 0.5% BSA). Afterwards the plates are washed 3 times with PBS-Tween-20. The enzymatic reaction is performed in 50 μl reaction solution (50 mM HEPES, 4 mM Mg-chloride, 0.05% Pluronic F-68, 1.4 mM DTT, 0.5% DMSO, pH 7.7) with 10 μM bio-NAD (Biolog, Life science Inst., Bremen, Germany) as co-substrate in the absence or presence of the test compound (10 dilution concentrations) for 1 hour at 30° C. The reaction is stopped by 3 times washing with PBS-Tween-20. For the detection 50 μl of 20 ng/μl Streptavidin, HRP conjugate (MoBiTec, Göttingen, Germany) in PBS/0.05% Tween-20/0.01% BSA are added and the plates are incubated for 30 minutes at room temperature. After three times washing with PBS-Tween-20 50 μl of SuperSignal ELISA Femto Maximum sensitivity substrate solution (ThermoFisherScientific (Pierce), Bonn, Germany) are added. Following a 1 minute incubation at room temperature luminescence signals are measured with an Envision multimode reader (Perkin Elmer LAS Germany GmbH) at 700 nm. The full value used is the inhibitor-free reaction. The pharmacological zero value used is XAV-939 (Tocris) in a final concentration of 5 μM. The inhibitory values (1050) are determined using either the program Symyx Assay Explorer® or Condosseo® from GeneData.

[2] = target: T2, GST-tagged Tnks-1 (1023-1327 aa) (Homo sapiens, UniProt O95271); experiment: TNKS1 activity ELISA (autoparsylation assay); format: biochemical
T2 construct: GST-tagged Tnks-1 (1023-1327 aa, prepared in-house); made in house
Experimental: as §1, §2, §3, §4

tankyrase 1/2 = experiment: Cellular inhibition of Tankyrase: increase of Axin2 level in DLD1 cells (Luminex); format: cell-based; conditions: 24 hours, read-out: EC50 tankyrase 1/2 (cell assay)
Experimental: Measurement of Cellular Inhibition of Tankyrase
Since Tankyrases have been described to modulate cellular level of Axin2 (Huang et al., 2009; Nature) the increase of Axin2 level is used as read-out for determination of cellular inhibition of Tankyrases in a Luminex based assay.
Cells of the colon carcinoma cell line DLD1 are plated in 96 well plates with 1.5×10^4 cells per well. Next day, cells are treated with a serial dilution of test compound in seven steps as triplicates with a final DMSO concentration of 0.3%. After 24 hours, cells are lysed in lysis buffer (20 mM Tris/HCl pH 8.0, 150 mM NaCl, 1% NP40, 10% Glycerol) and lysates are cleared by centrifugation through a 96 well filter plate (0.65 μm). Axin2 protein is isolated from cell lysates by incubation with a monoclonal anti-Axin2 antibody (R&D Systems #MAB6078) that is bound to fluorescent carboxybeads. Then, bound Axin2 is specifically detected with a polyclonal anti-Axin2 antibody (Cell Signaling #2151) and an appropriate PE-fluorescent secondary antibody. The amount of isolated Axin2 protein is determined in a Luminex^200 machine (Luminex Corporation) according to the manufacturer's instruction by counting 100 events per well. Inhibition of Tankyrase by test compounds results in higher levels of Axin2 which directly correlates with an increase of detectable fluorescence. As controls cells are treated with solvent alone (neutral control) and with a Tankyrase reference inhibitor IWR-2 (3E-06 M) which refers as control for maximum increase of Axin2. For analysis, the obtained data are normalized against the untreated solvent control and fitted for determination of the EC50 values using the Assay Explorer software (Accelrys).

[3] = target: T3, GST-tagged Tankyrase-1 (1023-1327 aa) (Homo sapiens, UniProt O95271); experiment: Tankyrase 1 autoparsylation assay (HTRF enzyme assay); format: biochemical
T3 construct: GST-tagged Tankyrase-1 (1023-1327 aa)
Experimental: (§5) Biochemical Activity Testing of Tankyrase 1 and 2: Autoparsylation Assay
(§6) The autoparsylation assay is run in two steps: the enzymatic reaction in which GST-tagged Tankyrase-1, resp Tankyrase-2 transferred biotinylated ADP-ribose to itself from biotinylated NAD as co-substrate and the detection reaction where a time resolved FRET between cryptate labelled anti-GST bound to the GST tag of the enzyme and Xlent® labelled-streptavidin bound the biotin-parsylation residue is analysed. The autoparsylation activity was detectable directly via the increase in HTRF signal.
(§7) The autoparsylation assay is performed as 384-well HTRF® (Cisbio, Codolet, France) assay format in Greiner low volume nb 384-well microtiter plates and is used for high throughput screen. 250 nM GST-tagged Tankyrase-1 (1023-1327 aa), respectively about 250 nM GST-tagged Tankyrase-2 (873-1166 aa) and 5 μM bio-NAD (Biolog, Life science Inst., Bremen, Germany) as co-substrate are incubated in a total volume of 5 μl (50 mM HEPES, 4 mM Mg-chloride, 0.05% Pluronic F-68, 1.4 mM DTT, 0.5% DMSO, pH 7.7) in the absence or presence of the test compound (10 dilution concentrations) for 90 min at 30° C. The reaction is stopped by the addition of 1 μl 50 mM EDTA solution. 2 μl of the detection solution (1.6 μM SA-Xlent® (Cisbio, Codolet, France), 7.4 nM Anti-GST-K® (Eu-labelled anti-GST, Cisbio, Codolet, France) in 50 mM HEPES, 800 mM KF, 0.1% BSA, 20 mM EDTA, 0.1% CHAPS, pH 7.0) are added. After 1 h incubation at room temperature the HTRF is measured with an Envision multimode reader (Perkin Elmer LAS Germany GmbH) at excitation wavelength 340 nm (laser mode) and emission wavelengths 615 nm and 665 nm. The ratio of the emission signals is determined. The full value used is the inhibitor-free reaction. The pharmacological zero value used is XAV-939 (Tocris) in a final concentration of 5 μM. The inhibitory values (IC50) are determined using either the program Symyx Assay Explorer® or Condosseo® from GeneData.

[4] = target: T4, GST-tagged Tankyrase-2 (873-1166 aa) (Homo sapiens, UniProt Q9H2K2); experiment: Tankyrase 2 autoparsylation assay (HTRF enzyme assay); format: biochemical
T4 construct: GST-tagged Tankyrase-2 (873-1166 aa)
Experimental: as §5, §6, §7

His-tagged Parp-1 = target: T5, His-tagged Parp-1 (Homo sapiens, UniProt P09874); experiment: PARP-1 autoparsylation assay (HTRF); format: biochemical; conditions: PARP-1 autoparsylation HTRF assay
T5 construct: purchased Enzo Life Sciences GmbH
Excerpt: Description of the PARP1 Assay
Biochemical Activity Testing of PARP-1: Autoparsylation Assay
The autoparsylation assay is run in two steps: the enzymatic reaction in which
His-tagged Parp-1 transfers biotinylated ADP-ribose/ADP-ribose to itself from biotinylated NAD/NAD as co-substrate and the detection reaction where a time resolved FRET between cryptate labelled anti-His antibody bound to the His tag of the enzyme and Xlent® labelled-streptavidin bound the biotin-parsylation residue is analysed. The autoparsylation activity is detectable directly via the increase in HTRF signal.
The autoparsylation assay is performed as 384-well HTRF® (Cisbio, Codolet, France) assay format in Greiner low volume nb 384-well microtiter plates. 35 nM His-tagged Parp-1 (human, recombinant, Enzo Life Sciences GmbH, Lörrach, Germany) and a mixture of 125 nM bio-NAD (Biolog, Life science Inst., Bremen, Germany) and 800 nM NAD as co-substrate are incubated in a total volume of 6 μl (100 mM Tris/HCl, 4 mM Mg-chloride, 0.01% IGEPAL® CA630, 1 mM DTT, 0.5% DMSO, pH 8, 13 ng/μl activated DNA (BPS Bioscience, San Diego, US)) in the absence or presence of the test compound (10 dilution concentrations) for 150 min at 23° C. The reaction is stopped by the addition of 4 μl of the Stop/detection solution (70 nM SA-Xlent® (Cisbio, Codolet, France), 2.5 nM Anti-His-K® (Eu-labelled anti-His, Cisbio, Codolet, France) in 50 mM HEPES, 400 mM KF, 0.1% BSA, 20 mM EDTA, pH 7.0). After 1 h incubation at room temperature the HTRF is measured with an Envision multimode reader (Perkin Elmer LAS Germany GmbH) at excitation wavelength 340 nm (laser mode) and emission wavelengths 615 nm and 665 nm. The ratio of the emission signals is determined. The full value used is the inhibitor-free reaction. The pharmacological zero value used is Olaparib (LClabs, Woburn, US) in a final concentration of 1 μM. The inhibitory values (IC50) are determined using either the program Symyx Assay Explorer® or Condosseo® from GeneData.

T1 sequence (Q9H2K2 873-1166): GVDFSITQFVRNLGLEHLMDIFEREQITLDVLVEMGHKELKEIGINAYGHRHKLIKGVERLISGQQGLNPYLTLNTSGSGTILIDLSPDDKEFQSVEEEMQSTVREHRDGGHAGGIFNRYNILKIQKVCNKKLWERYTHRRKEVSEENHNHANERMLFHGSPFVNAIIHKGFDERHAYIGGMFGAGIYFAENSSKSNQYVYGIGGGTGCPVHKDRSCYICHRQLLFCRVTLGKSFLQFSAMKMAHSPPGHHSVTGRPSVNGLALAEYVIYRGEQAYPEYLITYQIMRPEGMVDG
T4 sequence (Q9H2K2 873-1166): as above
T5 sequence (P09874 whole entry): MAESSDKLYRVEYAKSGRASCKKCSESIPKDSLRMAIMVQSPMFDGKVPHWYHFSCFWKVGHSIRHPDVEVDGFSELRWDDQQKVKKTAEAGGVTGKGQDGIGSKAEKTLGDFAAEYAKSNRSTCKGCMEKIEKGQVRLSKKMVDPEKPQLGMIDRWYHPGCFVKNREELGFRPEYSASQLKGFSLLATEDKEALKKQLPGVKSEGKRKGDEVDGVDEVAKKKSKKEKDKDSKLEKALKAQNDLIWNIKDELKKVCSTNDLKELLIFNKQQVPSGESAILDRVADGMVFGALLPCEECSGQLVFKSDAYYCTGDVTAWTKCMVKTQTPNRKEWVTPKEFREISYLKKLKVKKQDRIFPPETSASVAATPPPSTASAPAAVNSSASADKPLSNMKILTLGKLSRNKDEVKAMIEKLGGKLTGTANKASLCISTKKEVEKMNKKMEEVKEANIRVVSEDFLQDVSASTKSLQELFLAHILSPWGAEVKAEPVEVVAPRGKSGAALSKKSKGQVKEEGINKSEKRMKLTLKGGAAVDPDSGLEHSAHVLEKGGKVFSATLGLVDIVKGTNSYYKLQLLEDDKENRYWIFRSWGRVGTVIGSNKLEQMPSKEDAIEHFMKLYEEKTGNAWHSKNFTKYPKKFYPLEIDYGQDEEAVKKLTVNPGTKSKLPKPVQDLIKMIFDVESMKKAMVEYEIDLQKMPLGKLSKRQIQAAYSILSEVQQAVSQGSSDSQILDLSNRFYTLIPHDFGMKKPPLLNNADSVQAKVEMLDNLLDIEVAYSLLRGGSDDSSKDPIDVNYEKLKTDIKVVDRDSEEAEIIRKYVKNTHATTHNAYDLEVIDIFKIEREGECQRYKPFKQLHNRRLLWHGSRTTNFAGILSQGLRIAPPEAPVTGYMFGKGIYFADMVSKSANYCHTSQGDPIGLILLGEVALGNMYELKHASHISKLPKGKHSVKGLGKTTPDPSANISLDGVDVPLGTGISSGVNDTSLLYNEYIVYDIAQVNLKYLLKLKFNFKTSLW
T2 sequence (O95271 1023-1327): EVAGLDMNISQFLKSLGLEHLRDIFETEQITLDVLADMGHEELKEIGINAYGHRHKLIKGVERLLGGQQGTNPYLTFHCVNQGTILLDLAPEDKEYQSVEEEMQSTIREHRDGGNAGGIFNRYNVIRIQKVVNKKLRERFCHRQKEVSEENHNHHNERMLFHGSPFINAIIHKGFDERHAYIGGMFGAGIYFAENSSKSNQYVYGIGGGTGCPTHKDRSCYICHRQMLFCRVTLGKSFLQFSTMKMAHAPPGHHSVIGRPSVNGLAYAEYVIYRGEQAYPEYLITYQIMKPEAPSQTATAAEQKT
T3 sequence (O95271 1023-1327): as above

In the case of `Cc1cc2c(=O)[nH]c(-c3ccc(C(C)(C)C)cc3)cn2c1` [Compound A38, 3-(4-tert-butyl-phenyl)-7-methyl-2H-pyrrolo[1,2-a]pyrazin-1-one], the IC50 [1] is reported as < 0.3 µM, the IC50 [2] is reported as < 0.3 µM and the EC50 (tankyrase 1/2) is reported as < 0.3 µM.

For `CN1CCC(c2ccc(-c3cn4cc(F)cc4c(=O)[nH]3)cc2)CC1` [Compound A81, 7-fluoro-3-[4-(1-methyl-piperidin-4-yl)-phenyl]-2H-pyrrolo[1,2-a]pyrazin-1-one], the IC50 [1] was < 0.3 µM, the IC50 [3] was < 0.3 µM and the IC50 [2] was < 0.3 µM. For the same molecule, the EC50 (tankyrase 1/2) was 0.3 to 3 µM and the IC50 [4] was 0.3 to 3 µM.

In the case of `O=c1[nH]c(-c2ccc(C3(O)COC3)cc2)cn2cccc12` [Compound A110], the IC50 [1] is reported as < 0.3 µM, the IC50 [3] is reported as < 0.3 µM and the IC50 [2] is reported as < 0.3 µM. It also gave an EC50 (tankyrase 1/2) of 0.3 to 3 µM and an IC50 [4] of 0.3 to 3 µM.

For `CC(C)(C)c1ccc(-c2cn3cc(C#N)cc3c(=O)[nH]2)cc1` [Compound A92, 3-(4-tert-butyl-phenyl)-1-oxo-1,2-dihydro-pyrrolo[1,2-a]pyrazine-7-carbonitrile], the IC50 [1] was < 0.3 µM, the IC50 [3] was < 0.3 µM and the IC50 [2] was < 0.3 µM. The EC50 (tankyrase 1/2) was 3 to 50 µM and the IC50 [4] was 0.3 to 3 µM.

For `Cc1cc2c(=O)[nH]c(-c3ccc(N4CCCC4)cc3)cn2n1` [Compound A37, 2-methyl-6-(4-pyrrolidin-1-yl-phenyl)-5H-pyrazolo[1,5-a]pyrazin-4-one], the IC50 [3] was < 0.3 µM, the IC50 [2] was < 0.3 µM and the EC50 (tankyrase 1/2) was 0.3 to 3 µM. It also gave an IC50 [4] of 0.3 to 3 µM.

With `O=c1[nH]c(-c2ccc(C3(O)CCCC3)cc2)cn2cc(F)cc12` [Compound A85, 7-fluoro-3-[4-(1-hydroxy-cyclopentyl)-phenyl]-2H-pyrrolo[1,2-a]pyrazin-1-one] the IC50 [1] was < 0.3 µM, the IC50 (His-tagged Parp-1) was 0.3 to 3 µM and the IC50 [2] was < 0.3 µM.

With `CC(C)(C)c1ccc(-c2cn3nc(CO)cc3c(=O)[nH]2)cc1` [Compound A18, 6-(4-tert-butyl-phenyl)-2-hydroxymethyl-5H-pyrazolo[1,5-a]pyrazin-4-one] the IC50 [1] was < 0.3 µM, the IC50 [3] was < 0.3 µM and the IC50 [2] was < 0.3 µM. The EC50 (tankyrase 1/2) was 0.3 to 3 µM and the IC50 [4] was 0.3 to 3 µM.

With `CC(C)(O)c1ccc(-c2cn3c(F)c(F)cc3c(=O)[nH]2)cc1` [Compound A83, 6,7-difluoro-3-[4-(1-hydroxy-1-methyl-ethyl)-phenyl]-2H-pyrrolo[1,2-a]pyrazin-1-one] the IC50 [1] was < 0.3 µM, the IC50 (His-tagged Parp-1) was < 0.3 µM and the IC50 [2] was < 0.3 µM.

In the case of `CC(C)(O)c1ccc(-c2cn3c(F)ccc3c(=O)[nH]2)cc1` [Compound A84, 6-fluoro-3-[4-(1-hydroxy-1-methyl-ethyl)-phenyl]-2H-pyrrolo[1,2-a]pyrazin-1-one], the IC50 [1] is reported as < 0.3 µM, the IC50 (His-tagged Parp-1) is reported as 0.3 to 3 µM and the IC50 [2] is reported as < 0.3 µM.

`Cc1ccc2c(=O)[nH]c(-c3ccc(C(C)(C)O)cc3)cn12` [Compound A95] was tested, and the IC50 [1] was < 0.3 µM and the EC50 (tankyrase 1/2) was < 0.3 µM.

`Cc1cc2c(=O)[nH]c(-c3cnn(C(C)(C)C)c3)cn2c1` [Compound A57, 3-(1-tert-butyl-1H-pyrazol-4-yl)-7-methyl-2H-pyrrolo[1,2-a]pyrazin-1-one] was tested, and the IC50 [1] was 0.3 to 3 µM, the IC50 [3] was 0.3 to 3 µM and the IC50 (His-tagged Parp-1) was 0.3 to 3 µM. The IC50 [2] was < 0.3 µM and the IC50 [4] was 0.3 to 3 µM.

With `CC(C)(C)c1ccc(-c2cn3nccc3c(=O)[nH]2)cc1` [Compound A15, 6-(4-tert-butyl-phenyl)-5H-pyrazolo[1,5-a]pyrazin-4-one] the IC50 [1] was < 0.3 µM, the IC50 [3] was < 0.3 µM and the IC50 [2] was < 0.3 µM. For the same molecule, the EC50 (tankyrase 1/2) was < 0.3 µM and the IC50 [4] was < 0.3 µM.
